Test results as given in patent US20090156577A1, “7-AMINO ALKYLIDENYL-HETEROCYCLIC QUINOLONES AND NAPHTHYRIDONES” (priority 2004, published 2009).
Converted amounts (≈) assume the structure as drawn. Like-named read-outs stand apart in the source and are kept apart here.

Test system: pathogenic bacteria
Assay: MIC by microdilution broth method (NCCLS M7-A4), in vitro antibacterial activity
Format: cell-based
Protocol: Minimal inhibitory concentration (MIC) has been an indicator of in vitro antibacterial activity widely used in the art. The in vitro antimicrobial activity of the compounds was determined by the microdilution broth method following the test method from the National Committee for Clinical Laboratory Standards (NCCLS). This method is described in the NCCLS Document M7-A4, Vol. 17, No. 2, “Methods for Dilution Antimicrobial Susceptibility Test for Bacteria that Grow Aerobically—Fourth Edition”, which is incorporated herein by reference.
In this method two-fold serial dilutions of drug in cation adjusted Mueller-Hinton broth are added to wells in microdilution trays. The test organisms are prepared by adjusting the turbidity of actively growing broth cultures so that the final concentration of test organism after it is added to the wells is approximately 5×10^4 CFU/well.
Following inoculation of the microdilution trays, the trays are incubated at 35° C. for 16-20 hours and then read. […] The amount of growth in the wells containing the test compound is compared with the amount of growth in the growth-control wells (no test compound) used in each tray. As set forth in Table 5, compounds of the present invention were tested against a variety of pathogenic bacteria resulting in a range of activities depending on the organism tested.

[1] = Staphylococcus aureus, Organism A: Staphylococcus aureus OC4172, read-out: MIC
[2] = Streptococcus pneumoniae, ATCC49619, Organism E: Streptococcus pneumoniae ATCC 49619, read-out: MIC
[3] = Streptococcus pneumoniae, Organism B: fluoroquinolone-resistant clinical isolate of Streptococcus pneumoniae (QRDR amino acid substitutions)
[4] = Streptococcus pneumoniae, Organism C: fluoroquinolone-resistant clinical isolate of Streptococcus pneumoniae (QRDR amino acid substitutions)
[5] = Streptococcus pneumoniae, Organism D: fluoroquinolone-resistant clinical isolate of Streptococcus pneumoniae (QRDR amino acid substitutions)

COc1c(N2CC/C(=C(\Cl)CN)C2)c(F)cc2c(=O)c(C(=O)O)cn(C3CC3)c12 [Compound 14, (E)-7-[3-(2-Amino-1-chloro-ethylidene)-pyrrolidin-1-yl]-1-cyclopropyl-6-fluoro-8-methoxy-4-oxo-1,4-dihydro-quinoline-3-carboxylic acid]
MIC [1]: 0.03 mg/L (≈ 0.0711 µM)
MIC [2]: 0.25 mg/L (≈ 0.593 µM)
MIC [3]: 2 mg/L (≈ 4.74 µM)
MIC [4]: 1 mg/L (≈ 2.37 µM)
MIC [5]: 1 mg/L (≈ 2.37 µM)

COc1c(N2CCOC/C(=C(\F)CN)C2)c(F)cc2c(=O)c(C(=O)O)cn(C3CC3)c12 [Compound 507, (Z)-7-[6-(2-Amino-1-fluoro-ethylidene)-[1,4]oxazepan-4-yl]-1-cyclopropyl-6-fluoro-8-methoxy-4-oxo-1,4-dihydro-quinoline-3-carboxylic acid]
MIC [1]: 0.06 mg/L (≈ 0.138 µM)
MIC [2]: 0.25 mg/L (≈ 0.574 µM)
MIC [3]: 0.12 mg/L (≈ 0.276 µM)
MIC [4]: 2 mg/L (≈ 4.59 µM)
MIC [5]: 2 mg/L (≈ 4.59 µM)

NC/C(F)=C1\COCCN(c2nc3c(cc2F)c(=O)c(C(=O)O)cn3C2CC2)C1 [Compound 498, (E)-7-[6-(2-Amino-1-fluoro-ethylidene)-[1,4]oxazepan-4-yl]-1-cyclopropyl-6-fluoro-4-oxo-1,4-dihydro-[1,8]naphthyridine-3-carboxylic acid]
MIC [1]: 1 mg/L (≈ 2.46 µM)
MIC [2]: 16 mg/L (≈ 39.4 µM)
MIC [3]: 4 mg/L (≈ 9.84 µM)
MIC [4]: > 16 mg/L
MIC [5]: > 16 mg/L

NC/C(Cl)=C1\CCCN(c2nc3c(cc2F)c(=O)c(C(=O)O)cn3C2CC2)CC1 [Compound 378, (Z)-7-[4-(2-Amino-1-chloro-ethylidene)-azepan-1-yl]-1-cyclopropyl-6-fluoro-4-oxo-1,4-dihydro-[1,8]naphthyridine-3-carboxylic acid]
MIC [1]: 0.25 mg/L (≈ 0.594 µM)
MIC [2]: 1 mg/L (≈ 2.38 µM)
MIC [4]: 4 mg/L (≈ 9.5 µM)
MIC [5]: 16 mg/L (≈ 38 µM)

Nc1nc(-n2cc(C(=O)O)c(=O)c3cc(F)c(N4CCC/C(=C(/Cl)CO)C4)c(Cl)c32)c(F)cc1F [Compound 416, (Z)-1-(6-Amino-3,5-difluoro-pyridin-2-yl)-8-chloro-7-[3-(1-chloro-2-hydroxy-ethylidene)-piperidin-1-yl]-6-fluoro-4-oxo-1,4-dihydro-quinoline-3-carboxylic acid]
MIC [1]: 0.06 mg/L (≈ 0.113 µM)
MIC [2]: 1 mg/L (≈ 1.89 µM)
MIC [3]: 16 mg/L (≈ 30.2 µM)
MIC [4]: > 16 mg/L
MIC [5]: 16 mg/L (≈ 30.2 µM)

CC(C)NCC(F)=C1CCN(c2c(F)cc3c(=O)c(C(=O)O)cn(C4CC4)c3c2OC(F)F)CC1 [Compound 251, 1-Cyclopropyl-8-difluoromethoxy-6-fluoro-7-[4-(1-fluoro-2-isopropylamino-ethylidene)-piperidin-1-yl]-4-oxo-1,4-dihydro-quinoline-3-carboxylic acid]
MIC [1]: 0.5 mg/L (≈ 1.01 µM)
MIC [2]: 1 mg/L (≈ 2.01 µM)
MIC [4]: 16 mg/L (≈ 32.2 µM)
MIC [5]: > 2 mg/L

C=CCC(CN)=C1CCN(c2c(F)cc3c(=O)c(C(=O)O)cn(C4CC4)c3c2OC)CC1 [Compound 203, 7-[4-(1-Aminomethyl-but-3-enylidene)-piperidin-1-yl]-1-cyclopropyl-6-fluoro-8-methoxy-4-oxo-1,4-dihydro-quinoline-3-carboxylic acid]
MIC [1]: 0.06 mg/L (≈ 0.136 µM)
MIC [2]: 0.12 mg/L (≈ 0.272 µM)
MIC [3]: 0.06 mg/L (≈ 0.136 µM)
MIC [4]: 1 mg/L (≈ 2.26 µM)
MIC [5]: 0.5 mg/L (≈ 1.13 µM)

CC(C)NCC(Cl)=C1CCN(c2nc3c(cc2F)c(=O)c(C(=O)O)cn3C2CC2)CC1 [Compound 166, 7-[4-(1-Chloro-2-isopropylamino-ethylidene)-piperidin-1-yl]-1-cyclopropyl-6-fluoro-4-oxo-1,4-dihydro-[1,8]naphthyridine-3-carboxylic acid]
MIC [1]: 0.5 mg/L (≈ 1.11 µM)
MIC [2]: 1 mg/L (≈ 2.23 µM)
MIC [4]: 4 mg/L (≈ 8.91 µM)
MIC [5]: 4 mg/L (≈ 8.91 µM)

C[C@H]1COc2c(N3CCC/C(=C(\F)CN)C3)c(F)cc3c(=O)c(C(=O)O)cn1c23 [Compound 398, (E)-9-[3-(2-Amino-1-fluoro-ethylidene)-piperidin-1-yl]-8-fluoro-(3S)-3-methyl-6-oxo-2,3-dihydro-6H-1-oxa-3a-aza-phenalene-5-carboxylic acid]
MIC [1]: ≤ 0.015 mg/L
MIC [2]: 0.03 mg/L (≈ 0.074 µM)
MIC [3]: 0.25 mg/L (≈ 0.617 µM)
MIC [4]: 0.5 mg/L (≈ 1.23 µM)
MIC [5]: 1 mg/L (≈ 2.47 µM)
